Laboratory results taken from patent publication US11000033B2, “Ketone or oxime compound, and herbicide” (NISSAN CHEMICAL CORPORATION, priority 2014, dated 2021).

Columns and labels:
Format in all cases: in vivo
[1] = tested on: directly sowed rice plant; test: Test Example 3: effect on crop by foliage application, Wagner pot (symbol b); details: application herbicide amount 320 g/ha
Outline: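 Steps: fill a 1/10000-are Wagner pot with alluvial soil; add water and mix to submerge at 0.1–0.5 cm depth; sow rice plus Echinochloa crus-galli var. crus-galli, Leptochloa chinensis and Cyperus difformis; grow in a 25–30 °C greenhouse.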

beet = test: Test Example 4: effect on crop by soil treatment (symbol f); details: for f: beet, effect grade on crop: 320 g/ha; for f: beet, effect on crop grade: application herbicide amount 320 g/ha
Outline: (§1)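 Sterilized diluvial soil, spot sowing, ~1.5 cm soil cover; greenhouse 25–30° C.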

Monochoria vaginalis [2] = test: Test Example 2: herbicidal activity, application during weed generation in submerged conditions (symbol C); details: Table 23; application herbicide amount 320 g/ha; grade 0-5 by criteria of Test Example 1
Outline: (§2)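 Treatment timing was the one- to two-leaf stage, with diluted emulsifiable compound dropped onto the paddy water (depth 4 cm) over alluvial soil. All three species grew from a mixed sowing in a 25° C. to 30° C. greenhouse. Injury was judged by eye 3 weeks on.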

wheat [3] = test: Test Example 4: effect on crop by soil treatment (symbol e); details: for e: wheat, effect grade on crop: 320 g/ha; for e: wheat, effect on crop grade: application herbicide amount 320 g/ha
Outline: as §1

Lolium multiflorum Lam. = test: Test Example 4: herbicidal effect by soil treatment (symbol K)
Outline: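 Seeds were sown in sterilized diluvial soil, covered with about 1.5 cm of soil, and the soil surface was sprayed with a water-diluted emulsion of the compound at a predetermined rate. Plants grew in a greenhouse at 25° C. to 30° C.; effects were scored visually 3 weeks after application.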

rapeseed = test: Test Example 5: effect on crop by foliage application, plastic box (symbol g); details: 320 g/ha, 3 weeks after application
Outline: (§3)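 Plants were raised from seed in a greenhouse (25° C. to 30° C.) after sowing in a plastic box of sterilized diluvial soil.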

Scirpus juncoides = test: Test Example 1: herbicidal activity, application before weed generation in submerged conditions (symbol B); details: application herbicide amount 320 g/ha
Outline: (§4)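 Greenhouse growth at 25–30 °C lasted 3 weeks after treatment, when each weed was graded 0–5 by herbicidal ratio. Treatment was a diluted emulsion applied to the water surface of 4 cm-submerged alluvial soil on the sowing day.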

Avena fatua = test: Test Example 5: herbicidal effect by foliage application, plastic box (symbol I); details: 320 g/ha, 3 weeks after application
Outline: (§5)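 Emulsion formulation, diluted with water to the intended rate, was applied uniformly to leaves by small sprayer. Recipients were 14-day greenhouse-grown seedlings (25° C. to 30° C.). Assessment followed at 3 weeks.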

Amaranthus retroflexus = test: Test Example 5: herbicidal effect by foliage application, plastic box (symbol N); details: 320 g/ha, 3 weeks after application
Outline: as §5

wheat [4] = test: Test Example 5: effect on crop by foliage application, plastic box (symbol e); details: 320 g/ha, 3 weeks after application
Outline: as §3

[5] = tested on: Echinochloa oryzacola Vasing.; test: Test Example 2: herbicidal activity, application during weed generation in submerged conditions (symbol A); details: Table 23; application herbicide amount 320 g/ha; grade 0-5 by criteria of Test Example 1
Outline: as §2

soybean = test: Test Example 4: effect on crop by soil treatment (symbol d); details: for d: soybean, effect grade on crop: 320 g/ha; for d: soybean, effect on crop grade: application herbicide amount 320 g/ha
Outline: as §1

Veronica persica = test: Test Example 5: herbicidal effect by foliage application, plastic box (symbol R); details: 320 g/ha, 3 weeks after application
Outline: as §5

Monochoria vaginalis [6] = test: Test Example 1: herbicidal activity, application before weed generation in submerged conditions (symbol C); details: application herbicide amount 320 g/ha
Outline: as §4

[7] = application herbicide amount 320 g/ha

Compound	effect on crop b (directly sowed rice plant), grade 0-5 [1]	f: beet, effect grade on crop (beet)	Herbicidal effect grade, C: Monochoria vaginalis (Monochoria vaginalis [2])	e: wheat, effect grade on crop (wheat [3])	K: Lolium multiflorum Lam., herbicidal effect grade (Lolium multiflorum Lam.; 320 g/ha)	g: rapeseed, effect on crop (criteria 0-5) (rapeseed)	Herbicidal effect grade, B: Scirpus juncoides (Scirpus juncoides)	I: Avena fatua, herbicidal effect (criteria 0-5) (Avena fatua)	Herbicidal effect grade, A: Echinochloa oryzacola Vasing. [5]	d: soybean, effect grade on crop (soybean)	Herbicidal effect grade, C: Monochoria vaginalis (Monochoria vaginalis [6])	g: rapeseed, effect on crop grade (rapeseed)	I: Avena fatua, herbicidal effect grade (Avena fatua)	N: Amaranthus retroflexus, herbicidal effect grade (Amaranthus retroflexus)	e: wheat, effect on crop grade (wheat [4])	R: Veronica persica, herbicidal effect grade (Veronica persica)	f: beet, effect on crop grade (beet)	e: wheat, effect on crop grade (wheat [3])	K: Lolium multiflorum Lam., herbicidal effect grade (Lolium multiflorum Lam.; [7])	d: soybean, effect on crop grade (soybean)	other results
CON=C(C)CC1CC(OC(=O)c2ccccc2OC(F)(F)F)=C(c2c(C)cc(C)cc2C)C1=O (stereo not drawn) [1-155]	5 (Herbicidal ratio of 90% or more (almost completely withered))	0 (Herbicidal ratio of 5% or lower (almost no effect))	3 (Herbicidal ratio of 40% or higher and lower than 70%)	3 (Herbicidal ratio of 40% or higher and lower than 70%)	5 (Herbicidal ratio of 90% or more (almost completely withered))	4 (Herbicidal ratio of 70% or higher and lower than 90%)	5 (Herbicidal ratio of 90% or more (almost completely withered))	5 (Herbicidal ratio of 90% or more (almost completely withered))	5 (Herbicidal ratio of 90% or more (almost completely withered))	0 (Herbicidal ratio of 5% or lower (almost no effect))	1 (Herbicidal ratio of 5% or higher and lower than 20%)	–	–	–	–	–	–	–	–	–	N: Amaranthus retroflexus, herbicidal effect (criteria 0-5) (Amaranthus retroflexus): 2 (Herbicidal ratio of 20% or higher and lower than 40%); e: wheat, effect on crop (criteria 0-5) (wheat [4]): 5 (Herbicidal ratio of 90% or more (almost completely withered)); R: Veronica persica, herbicidal effect (criteria 0-5) (Veronica persica): 3 (Herbicidal ratio of 40% or higher and lower than 70%)
CON=C(C)CC1CC(OC(=O)c2c(Cl)nn(C)c2Cl)=C(c2c(C)cc(C)cc2C)C1=O (stereo not drawn) [1-160]	5 (Herbicidal ratio of 90% or more (almost completely withered))	0 (Herbicidal ratio of 5% or lower (almost no effect))	4 (Herbicidal ratio of 70% or higher and lower than 90%)	2 (Herbicidal ratio of 20% or higher and lower than 40%)	5 (Herbicidal ratio of 90% or more (almost completely withered))	–	4 (Herbicidal ratio of 70% or higher and lower than 90%)	–	5 (Herbicidal ratio of 90% or more (almost completely withered))	0 (Herbicidal ratio of 5% or lower (almost no effect))	2 (Herbicidal ratio of 20% or higher and lower than 40%)	5 (Herbicidal ratio of 90% or more (almost completely withered))	5 (Herbicidal ratio of 90% or more (almost completely withered))	0 (Herbicidal ratio of 5% or lower (almost no effect))	5 (Herbicidal ratio of 90% or more (almost completely withered))	3 (Herbicidal ratio of 40% or higher and lower than 70%)	–	–	–	–	–
C=CC(=O)CC1CC(O)=C(c2c(C)cc(C)cc2C)C1=O (stereo not drawn) [2-031]	5 (Herbicidal ratio of 90% or more (almost completely withered))	–	0 (Herbicidal ratio of 5% or lower (almost no effect))	–	–	–	4 (Herbicidal ratio of 70% or higher and lower than 90%)	–	4 (Herbicidal ratio of 70% or higher and lower than 90%)	–	2 (Herbicidal ratio of 20% or higher and lower than 40%)	4 (Herbicidal ratio of 70% or higher and lower than 90%)	5 (Herbicidal ratio of 90% or more (almost completely withered))	0 (Herbicidal ratio of 5% or lower (almost no effect))	0 (Herbicidal ratio of 5% or lower (almost no effect))	4 (Herbicidal ratio of 70% or higher and lower than 90%)	0 (Herbicidal ratio of 5% or lower (almost no effect))	3 (Herbicidal ratio of 40% or higher and lower than 70%)	5 (Herbicidal ratio of 90% or more (almost completely withered))	0 (Herbicidal ratio of 5% or lower (almost no effect))	–
CON=C(C)CC1CC(O)=C(c2c(C)cc(C)cc2Br)C1=O (stereo not drawn) [6-038]	5 (Herbicidal ratio of 90% or more (almost completely withered))	–	1 (Herbicidal ratio of 5% or higher and lower than 20%)	–	–	–	4 (Herbicidal ratio of 70% or higher and lower than 90%)	–	4 (Herbicidal ratio of 70% or higher and lower than 90%)	–	3 (Herbicidal ratio of 40% or higher and lower than 70%)	5 (Herbicidal ratio of 90% or more (almost completely withered))	5 (Herbicidal ratio of 90% or more (almost completely withered))	5 (Herbicidal ratio of 90% or more (almost completely withered))	3 (Herbicidal ratio of 40% or higher and lower than 70%)	3 (Herbicidal ratio of 40% or higher and lower than 70%)	0 (Herbicidal ratio of 5% or lower (almost no effect))	1 (Herbicidal ratio of 5% or higher and lower than 20%)	5 (Herbicidal ratio of 90% or more (almost completely withered))	1 (Herbicidal ratio of 5% or higher and lower than 20%)	–
Cc1cc(C)c(C2=C(O)CC(CC(=O)CC3CC3)C2=O)c(C)c1 (stereo not drawn) [2-026]	5 (Herbicidal ratio of 90% or more (almost completely withered))	–	0 (Herbicidal ratio of 5% or lower (almost no effect))	–	–	–	3 (Herbicidal ratio of 40% or higher and lower than 70%)	–	4 (Herbicidal ratio of 70% or higher and lower than 90%)	–	0 (Herbicidal ratio of 5% or lower (almost no effect))	3 (Herbicidal ratio of 40% or higher and lower than 70%)	4 (Herbicidal ratio of 70% or higher and lower than 90%)	0 (Herbicidal ratio of 5% or lower (almost no effect))	0 (Herbicidal ratio of 5% or lower (almost no effect))	0 (Herbicidal ratio of 5% or lower (almost no effect))	0 (Herbicidal ratio of 5% or lower (almost no effect))	0 (Herbicidal ratio of 5% or lower (almost no effect))	5 (Herbicidal ratio of 90% or more (almost completely withered))	0 (Herbicidal ratio of 5% or lower (almost no effect))	–
CON=C(C)CC1CC(OC(=O)N2CCCC2)=C(c2c(C)cc(C)cc2C)C1=O (stereo not drawn) [1-150]	5 (Herbicidal ratio of 90% or more (almost completely withered))	0 (Herbicidal ratio of 5% or lower (almost no effect))	1 (Herbicidal ratio of 5% or higher and lower than 20%)	1 (Herbicidal ratio of 5% or higher and lower than 20%)	5 (Herbicidal ratio of 90% or more (almost completely withered))	4 (Herbicidal ratio of 70% or higher and lower than 90%)	3 (Herbicidal ratio of 40% or higher and lower than 70%)	5 (Herbicidal ratio of 90% or more (almost completely withered))	5 (Herbicidal ratio of 90% or more (almost completely withered))	0 (Herbicidal ratio of 5% or lower (almost no effect))	0 (Herbicidal ratio of 5% or lower (almost no effect))	–	–	–	–	–	–	–	–	–	N: Amaranthus retroflexus, herbicidal effect (criteria 0-5) (Amaranthus retroflexus): 0 (Herbicidal ratio of 5% or lower (almost no effect)); e: wheat, effect on crop (criteria 0-5) (wheat [4]): 4 (Herbicidal ratio of 70% or higher and lower than 90%); R: Veronica persica, herbicidal effect (criteria 0-5) (Veronica persica): 0 (Herbicidal ratio of 5% or lower (almost no effect))
